# From PubChem BioAssay (NCI)
#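 The compound was tested at five concentrations on cells cultured in 96-well plates, with a 48-hour exposure period. Abbreviation: GI50, concentration required for 50% inhibition of growth. The concentration for full growth arrest is given as TGI.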
# Legend:
# Assay in all cases: inhibition of tumour cell growth, NCI panel, 48 h
# [1] = test system: MALME-3M melanoma
# [2] = test system: SR leukemia
# [3] = test system: UO-31 renal
# [4] = test system: RXF 393 renal
# [5] = test system: M14 melanoma
# [6] = test system: SK-MEL-5 melanoma
# [7] = test system: BT-549 breast
# [8] = test system: SW-620 colon
# [9] = test system: HT29 colon
# [10] = test system: HCT-116 colon
# [11] = test system: HL-60(TB) leukemia
# [12] = test system: NCI-H460 lung
# [13] = test system: OVCAR-5 ovarian
# [14] = test system: CAKI-1 renal
# [15] = test system: K-562 leukemia
# [16] = test system: UACC-62 melanoma
# [17] = test system: SK-OV-3 ovarian
# [18] = test system: NCI/ADR-RES ovarian
# [19] = test system: CCRF-CEM leukemia
# [20] = test system: SN12C renal
# [21] = test system: HCT-15 colon
# [22] = test system: MDA-MB-231 breast
# [23] = test system: MDA-MB-468 breast
# [24] = test system: NCI-H226 lung
# [25] = test system: A498 renal
# [26] = test system: LOX IMVI melanoma
# [27] = test system: SF-268 CNS
# [28] = test system: A549 NSCLC
# [29] = test system: 786-0 renal
# [30] = test system: NCI-H23 lung
# [31] = test system: MCF7 breast
# [32] = test system: OVCAR-4 ovarian
# [33] = test system: ACHN renal
# [34] = test system: UACC-257 melanoma
# [35] = test system: T-47D breast
# [36] = test system: SF-295 CNS
# [37] = test system: RPMI-8226 leukemia
# [38] = test system: SNB-19 CNS
# [39] = test system: TK-10 renal
# [40] = test system: HS 578T breast
# [41] = test system: EKVX NSCLC
# [42] = test system: OVCAR-3 ovarian
# [43] = test system: NCI-H522 lung
# [44] = test system: SF-539 CNS
# [45] = test system: COLO 205 colon
# [46] = test system: IGROV1 ovarian
# [47] = test system: PC-3 prostate
# [48] = test system: OVCAR-8 ovarian
# [49] = test system: SNB-75 CNS
# [50] = test system: HOP-92 NSCLC
# [51] = test system: DU-145 prostate
# [52] = test system: HOP-62 NSCLC
# [53] = test system: U251 CNS
# [54] = test system: MOLT-4 leukemia
# [55] = test system: SK-MEL-28 melanoma
# [56] = test system: SK-MEL-2 melanoma
# [57] = test system: HCC-2998 colon
# [58] = test system: KM12 colon
# [59] = test system: MDA-MB-435
smiles,measurement,setting,value
O=C(NO)c1ccc(CN2CCN(c3nc(-c4ccccc4)c4ccccc4n3)CC2)cc1,GI50,[1],5.2 µM
same,TGI,[1],18.3 µM
same,GI50,[2],> 23.7 µM
same,TGI,[2],> 23.7 µM
same,GI50,[3],3000 nM
same,TGI,[3],7.24 µM
same,GI50,[4],2900 nM
same,TGI,[4],8.53 µM
same,GI50,[5],6.26 µM
same,TGI,[5],> 23.7 µM
same,GI50,[6],3.67 µM
same,TGI,[6],6.91 µM
same,GI50,[7],8.64 µM
same,TGI,[7],> 23.7 µM
same,GI50,[8],4.8 µM
same,TGI,[8],15.1 µM
same,GI50,[9],5.75 µM
same,TGI,[9],> 23.7 µM
same,GI50,[10],2950 nM
same,TGI,[10],20.2 µM
same,GI50,[11],6.99 µM
same,TGI,[11],> 23.7 µM
same,GI50,[12],3.66 µM
same,TGI,[12],8.5 µM
same,GI50,[13],4.61 µM
same,TGI,[13],12.4 µM
same,GI50,[14],5.15 µM
same,TGI,[14],20.2 µM
same,GI50,[15],5.8 µM
same,TGI,[15],> 23.7 µM
same,GI50,[16],3.74 µM
same,TGI,[16],8.28 µM
same,GI50,[17],5.61 µM
same,TGI,[17],13.5 µM
same,GI50,[18],3.24 µM
same,TGI,[18],7.86 µM
same,GI50,[19],2890 nM
same,TGI,[19],> 23.7 µM
same,GI50,[20],5.65 µM
same,TGI,[20],19.4 µM
same,GI50,[21],1080 nM
same,TGI,[21],7.77 µM
same,GI50,[22],3.4 µM
same,TGI,[22],11 µM
same,GI50,[23],2740 nM
same,TGI,[23],7.23 µM
same,GI50,[24],4.09 µM
same,TGI,[24],13.3 µM
same,GI50,[25],8.03 µM
same,TGI,[25],> 23.7 µM
same,GI50,[26],2970 nM
same,TGI,[26],6.12 µM
same,GI50,[27],6.59 µM
same,TGI,[27],20.7 µM
same,GI50,[28],4.57 µM
same,TGI,[28],11.5 µM
same,GI50,[29],5.81 µM
same,TGI,[29],19.1 µM
same,GI50,[30],3.67 µM
same,TGI,[30],7.89 µM
same,GI50,[31],4.4 µM
same,TGI,[31],23.4 µM
same,GI50,[32],4.3 µM
same,TGI,[32],> 23.7 µM
same,GI50,[33],4.06 µM
same,TGI,[33],10.2 µM
same,GI50,[34],6.94 µM
same,TGI,[34],> 23.7 µM
same,GI50,[35],6.05 µM
same,TGI,[35],23.2 µM
same,GI50,[36],4.5 µM
same,TGI,[36],11 µM
same,GI50,[37],5.6 µM
same,TGI,[37],> 23.7 µM
same,GI50,[38],6.27 µM
same,TGI,[38],> 23.7 µM
same,GI50,[39],7.04 µM
same,TGI,[39],> 23.7 µM
same,GI50,[40],7.85 µM
same,TGI,[40],> 23.7 µM
same,GI50,[41],4.94 µM
same,TGI,[41],11.8 µM
same,GI50,[42],4.32 µM
same,TGI,[42],15.1 µM
same,GI50,[43],4.57 µM
same,TGI,[43],14.1 µM
same,GI50,[44],3.97 µM
same,TGI,[44],7.92 µM
same,GI50,[45],5.13 µM
same,TGI,[45],12.3 µM
same,GI50,[46],4.55 µM
same,TGI,[46],11 µM
same,GI50,[47],4.18 µM
same,TGI,[47],> 23.7 µM
same,GI50,[48],4.78 µM
same,TGI,[48],12.9 µM
same,GI50,[49],3.76 µM
same,TGI,[49],> 23.7 µM
same,GI50,[50],5.02 µM
same,TGI,[50],21.6 µM
same,GI50,[51],5.63 µM
same,TGI,[51],17 µM
same,GI50,[52],8.88 µM
same,TGI,[52],> 23.7 µM
same,GI50,[53],6.19 µM
same,TGI,[53],> 23.7 µM
same,GI50,[54],5.59 µM
same,TGI,[54],> 23.7 µM
same,GI50,[55],6.83 µM
same,TGI,[55],> 23.7 µM
same,GI50,[56],7.78 µM
same,TGI,[56],> 23.7 µM
same,GI50,[57],4.03 µM
same,TGI,[57],9.97 µM
same,GI50,[58],7.77 µM
same,TGI,[58],> 23.7 µM
same,GI50,[59],6.64 µM
same,TGI,[59],> 23.7 µM
